Experimental data from ChEMBL document CHEMBL3992498, “Novel biguanide-based derivatives scouted as TAAR1 agonists: Synthesis, biological evaluation, ADME prediction and molecular docking studies” (Eur J Med Chem, 2017).
The source made the active and inactive calls. No cut-off for these calls is given here.

What was measured:
[1] = molecular target: Trace amine-associated receptor 1 (Mus musculus) (UniProt Q923Y8); assay: Agonist activity at mouse TAAR1 expressed in HEK293 cells assessed as cAMP accumulation at 10 uM after 20 mins by BRET assay relative to beta-PEA; type: functional, cell-based
[2] = molecular target: T1, Trace amine-associated receptor 1 (Homo sapiens) (UniProt Q96RJ0); assay: Agonist activity at human TAAR1 expressed in HEK293 cells assessed as cAMP accumulation at 10 uM after 20 mins by BRET assay relative to beta-PEA; type: functional, cell-based
T1 sequence (whole entry): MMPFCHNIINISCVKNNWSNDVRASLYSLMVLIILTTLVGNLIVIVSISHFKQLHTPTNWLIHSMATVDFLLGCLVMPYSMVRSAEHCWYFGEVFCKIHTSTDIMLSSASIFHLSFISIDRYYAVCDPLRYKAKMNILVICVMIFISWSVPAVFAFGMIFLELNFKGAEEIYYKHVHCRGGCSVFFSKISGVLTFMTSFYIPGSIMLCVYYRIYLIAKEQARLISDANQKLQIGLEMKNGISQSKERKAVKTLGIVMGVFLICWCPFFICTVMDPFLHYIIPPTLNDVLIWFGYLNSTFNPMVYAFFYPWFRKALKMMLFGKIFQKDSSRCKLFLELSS

[3] = molecular target: T2, Trace amine-associated receptor 5 (Mus musculus, UniProt Q5QD14); assay: Agonist activity at mouse TAAR5 expressed in HEK293 cells assessed as cAMP accumulation after 20 mins by BRET assay; type: functional, cell-based
T2 sequence (Q5QD14 whole entry): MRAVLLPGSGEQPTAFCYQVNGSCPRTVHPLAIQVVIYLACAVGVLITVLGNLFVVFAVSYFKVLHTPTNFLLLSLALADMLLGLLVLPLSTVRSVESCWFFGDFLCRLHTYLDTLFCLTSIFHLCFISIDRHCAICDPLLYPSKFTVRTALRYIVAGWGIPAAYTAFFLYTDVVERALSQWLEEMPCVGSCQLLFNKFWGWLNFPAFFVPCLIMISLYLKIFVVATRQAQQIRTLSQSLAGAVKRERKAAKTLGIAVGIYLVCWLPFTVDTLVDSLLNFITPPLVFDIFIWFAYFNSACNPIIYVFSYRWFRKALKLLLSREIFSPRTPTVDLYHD

[4] = molecular target: Trace amine-associated receptor 1 (Mus musculus, UniProt Q923Y8); assay: Agonist activity at mouse TAAR1 expressed in HEK293 cells assessed as cAMP accumulation after 20 mins by BRET assay; type: functional, cell-based
[5] = molecular target: T3, Trace amine-associated receptor 1 (Homo sapiens, UniProt Q96RJ0); assay: Agonist activity at human TAAR1 expressed in HEK293 cells assessed as cAMP accumulation after 20 mins by BRET assay; type: functional, cell-based
T3 sequence (Q96RJ0 whole entry): T1 sequence (whole entry)

[6] = Selectivity ratio of EC50 for human TAAR1 expressed in HEK293 cells to EC50 for mouse TAAR1 expressed in HEK293 cells; type: cell-based
[7] = molecular target: T3, Trace amine-associated receptor 1; assay: […] of full length recombinant human N-terminal HA-tagged/C-terminal FLAG-tagged TAAR1 expressed in CHOK1 cells assessed as increase in cAMP accumulation by AlphaScreen assay; type: functional, cell-based

Trace amine-associated receptor 1 (Mus musculus, UniProt Q923Y8), sequence (Q923Y8 whole entry): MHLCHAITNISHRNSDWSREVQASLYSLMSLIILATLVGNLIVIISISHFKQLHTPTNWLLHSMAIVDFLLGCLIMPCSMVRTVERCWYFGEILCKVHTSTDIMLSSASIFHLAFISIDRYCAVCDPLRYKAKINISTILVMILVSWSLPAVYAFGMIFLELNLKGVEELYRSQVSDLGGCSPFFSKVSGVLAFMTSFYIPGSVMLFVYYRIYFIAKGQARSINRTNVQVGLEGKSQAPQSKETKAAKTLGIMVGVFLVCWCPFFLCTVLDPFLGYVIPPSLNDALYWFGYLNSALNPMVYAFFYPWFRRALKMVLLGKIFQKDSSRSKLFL
Trace amine-associated receptor 1 (Mus musculus), sequence (Q923Y8 whole entry): as above

Row | SMILES | Activity [1] | Activity [2] | EC50 [3] [µM] | Emax [1] [%] | EC50 [4] [µM] | Emax [2] [%] | EC50 [5] [µM] | Ratio EC50 [6] | EC50 [7] [µM]
1 | NC(N)=N/C(N)=N/C1CCCCCC1 | inactive | inactive | > 10 |  |  |  |  |  | 
2 | NC(N)=N/C(N)=N/Cc1cccc(Cl)c1 |  |  | > 10 | > 85 | 0.097 | > 85 | 7 | 72.2 | 
3 | N=C(N)NC(=N)Nc1ccccc1 [PHENYL BIGUANIDE] | inactive | inactive | > 10 |  |  |  |  |  | 
4 | Cc1ccc(NC(=N)N=C(N)N)cc1 |  |  | > 10 | > 85 | 1.7 | > 85 | > 10 | > 5.88 | 
5 | NC(N)=N/C(N)=N/Cc1ccc(Cl)c(Cl)c1 |  |  | > 10 | > 85 | 0.036 | > 85 | 1.2 | 33.3 | 
6 | NC(N)=N/C(N)=N/Cc1ccc(Cl)cc1 |  |  | > 10 | > 85 | 0.78 | > 85 | 1.8 | 2.31 | 
7 | N=C(N)NC(=N)NC12CC3CC(CC(C3)C1)C2 | inactive | inactive | > 10 |  |  |  |  |  | 
8 | NC(N)=N/C(N)=N/c1ccc([N+](=O)[O-])cc1 | inactive | inactive | > 10 |  |  |  |  |  | 
9 | COc1cc(Cc2cnc(N)nc2N)cc(OC)c1OC [TRIMETHOPRIM] | inactive | inactive | > 10 |  |  |  |  |  | 
10 | NC(N)=N/C(N)=N/c1cccc(F)c1 | inactive | inactive | > 10 |  |  |  |  |  | 
11 | [H]/N=C(\N/C(=N/[H])Nc1ccc(Cl)cc1)NC(C)C [PROGUANIL] |  |  | > 10 |  | 5.4 |  | > 10 |  | 
12 | NC1=NC2(CCCCC2)N(c2ccc(Cl)cc2)C(N)=N1 | inactive | inactive | > 10 |  |  |  |  |  | 
13 | N=C(N)NC(=N)NCc1ccccc1 |  |  | > 10 | > 85 | 0.78 | > 85 | > 10 | > 12.8 | 
14 | COc1ccc(CNC(=N)NC(=N)N)cc1 | inactive | inactive | > 10 |  |  |  |  |  | 
15 | COc1ccc(C/N=C(\N)N=C(N)N)cc1OC | inactive | inactive | > 10 |  |  |  |  |  | 
16 | N=C(N)NC(=N)Nc1ccc(Cl)cc1 [4-CHLOROPHENYLBIGUANIDE] |  |  | > 10 | > 85 | 2.1 | > 85 | > 10 | > 4.76 | 
17 | CCc1nc(N)nc(N)c1-c1ccc(Cl)cc1 [PYRIMETHAMINE] | inactive | inactive | > 10 |  |  |  |  |  | 
18 | NC(N)=N/C(N)=N/C1CCCC1 | inactive | inactive | > 10 |  |  |  |  |  | 
19 | NC(N)=N/C(N)=N/Cc1ccccc1Cl |  |  | > 10 | > 85 | 0.41 | > 85 | 3 | 7.31 | 
20 | N=C(N)/N=C(\N)N1CCOCC1 [MOROXYDINE] |  |  | > 10 |  |  |  |  |  | 
21 | N=C(N)NC(=N)Nc1cccc(Cl)c1 | inactive | inactive | > 10 |  |  |  |  |  | 
22 | CC1(C)N=C(N)N=C(N)N1c1ccc(Cl)cc1 [CYCLOGUANIL] | inactive | inactive | > 10 |  |  |  |  |  | 
23 | NCCc1ccc(Oc2ccc(O)cc2)c(I)c1 |  |  |  |  |  |  |  |  | 1.69
24 | CC(C)NC(=N)NC(=N)Nc1ccc(Cl)cc1 |  |  |  | > 85 |  | > 85 |  | > 1.85 | 
25 | N=C(N)NC(=N)Nc1ccccc1Cl |  |  | > 10 | > 85 | 0.41 | > 85 | 1 | 2.44 | 
26 | N=C(N)NC(=N)Nc1ccc(Cl)c(Cl)c1 | inactive | inactive | > 10 |  |  |  |  |  | 
27 | NC(N)=N/C(N)=N/Cc1cccc(Br)c1 |  |  | > 10 | > 85 | 1.8 | > 85 | 4.9 | 2.72 | 
28 | NC(N)=N/C(N)=N/Cc1cccc(F)c1 |  |  | > 10 | > 85 | 0.54 | > 85 | 1.6 | 2.96 | 
29 | N=C(N)NC(=N)N1CCOCC1 | inactive | inactive |  |  |  |  |  |  | 
30 | COc1ccc(/N=C(\N)N=C(N)N)cc1 | inactive | inactive | > 10 |  |  |  |  |  | 
